Data as given in PubChem BioAssay AID1919010 (Molecular Pharmacology Branch, DTP, NCI, 2023).

Tested on: Hs578T complex spheroid growth, percent test/control
Experiment: Anticancer human tumor Hs578T cell line growth inhibition [AhR];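 also: luminescent viability signal as a proxy for spheroid growth; spheroids exposed to agents for one week after three days of growth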
Details: for viability, T/C: stronger effect = lower value
Procedure, shortened: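 Agents were dosed in half-log steps down from roughly clinical Cmax, or from 10 microM where Cmax was unknown, alone and with AhR antagonists. Read-out: percent test/control growth of tumor spheroids containing HUVEC and MSC stromal cells.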

[1] = curve of first compound, second compound 0.1 µM
[2] = curve of first compound, second compound 0.316 µM
[3] = curve of first compound, second compound 1 µM
[4] = curve of first compound, second compound 3.16 µM
[5] = curve of first compound, second compound 10 µM
[6] = second compound 0.1 µM, first compound 0.0316 µM
[7] = second compound 0.1 µM, first compound 0.1 µM
[8] = second compound 0.1 µM, first compound 0.316 µM
[9] = second compound 0.1 µM, first compound 1 µM
[10] = second compound 0.1 µM, first compound 3.16 µM
[11] = second compound 0.1 µM, first compound 10 µM
[12] = second compound 0.316 µM, first compound 0.0316 µM
[13] = second compound 0.316 µM, first compound 0.1 µM
[14] = second compound 0.316 µM, first compound 0.316 µM
[15] = second compound 0.316 µM, first compound 1 µM
[16] = second compound 0.316 µM, first compound 3.16 µM
[17] = second compound 0.316 µM, first compound 10 µM
[18] = second compound 1 µM, first compound 0.0316 µM
[19] = second compound 1 µM, first compound 0.1 µM
[20] = second compound 1 µM, first compound 0.316 µM
[21] = second compound 1 µM, first compound 1 µM
[22] = second compound 1 µM, first compound 3.16 µM
[23] = second compound 1 µM, first compound 10 µM
[24] = second compound 3.16 µM, first compound 0.0316 µM
[25] = second compound 3.16 µM, first compound 0.1 µM
[26] = second compound 3.16 µM, first compound 0.316 µM
[27] = second compound 3.16 µM, first compound 1 µM
[28] = second compound 3.16 µM, first compound 3.16 µM
[29] = second compound 3.16 µM, first compound 10 µM
[30] = second compound 10 µM, first compound 0.0316 µM
[31] = second compound 10 µM, first compound 0.1 µM
[32] = second compound 10 µM, first compound 0.316 µM
[33] = second compound 10 µM, first compound 1 µM
[34] = second compound 10 µM, first compound 3.16 µM
[35] = second compound 10 µM, first compound 10 µM

In the case of Cc1cncc(-c2nc(NCCc3c[nH]c4ccccc34)c3ncn(C(C)C)c3n2)c1, the viability, T/C (compound 0.1 µM) is reported as 107% [middle of 20 runs], the viability, T/C (compound 0.316 µM) is reported as 110% [middle of 20 runs] and the viability, T/C (compound 10 µM) is reported as 6.41% [middle of 20 runs]. The IC50 (compound alone, run of 08/16/2022) was 4.32 µM [middle of 24 runs].
Nc1ccn(C2OC(CO)C(O)C2(F)F)c(=O)n1 (centres undefined) + CC(CO)NC(=O)c1cc(-c2ccc(Cl)cc2)nn(-c2cnn(C)c2)c1=O gave an IC50 [1] of over 10000 nM, an IC50 [2] of 9590 nM and an IC50 [3] of over 10000 nM. The IC50 [4] was over 10000 nM, the IC50 [5] was 770 nM and the viability, T/C [6] was 54.6%. The viability, T/C [7] was 58.7%, the viability, T/C [8] was 62.1% and the viability, T/C [9] was 54%. It also gave a viability, T/C [10] of 51.9%, a viability, T/C [11] of 52.4% and a viability, T/C [12] of 60.3%. The viability, T/C [13] was 63.5%, the viability, T/C [14] was 52.5% and the viability, T/C [15] was 52.3%. It also gave a viability, T/C [16] of 57.3%, a viability, T/C [17] of 47.9% and a viability, T/C [18] of 61.1%. The viability, T/C [19] was 70.3%, the viability, T/C [20] was 55.3% and the viability, T/C [21] was 50.5%. It also gave a viability, T/C [22] of 57.9%, a viability, T/C [23] of 50.4% and a viability, T/C [24] of 59.4%. The viability, T/C [25] was 61.8%, the viability, T/C [26] was 59.5% and the viability, T/C [27] was 54.5%. It also gave a viability, T/C [28] of 53.6%, a viability, T/C [29] of 58.5% and a viability, T/C [30] of 55.1%. For the same compound, the viability, T/C [31] was 60.6%, the viability, T/C [32] was 47.7% and the viability, T/C [33] was 44.6%. It also gave a viability, T/C [34] of 51.5% and a viability, T/C [35] of 49.1%.
In the case of O=C(C=Cn1cnc(-c2cc(C(F)(F)F)cc(C(F)(F)F)c2)n1)NNc1cnccn1 + Cc1ccccc1N=Nc1ccc(NC(=O)c2ccnn2C)c(C)c1, the IC50 [1] is reported as 177 nM, the IC50 [2] is reported as 184 nM and the IC50 [3] is reported as 165 nM. It also gave an IC50 [4] of 171 nM, an IC50 [5] of 84.5 nM and a viability, T/C (second compound 0.1 µM, first compound 0.00949 µM) of 85%. It also gave a viability, T/C (second compound 0.1 µM, first compound 0.03 µM) of 90.5%, a viability, T/C (second compound 0.1 µM, first compound 0.0949 µM) of 72.8% and a viability, T/C (second compound 0.1 µM, first compound 0.3 µM) of 30.3%. For the same compound, the viability, T/C (second compound 0.1 µM, first compound 0.949 µM) was 11.2%, the viability, T/C (second compound 0.1 µM, first compound 3 µM) was 10.7% and the viability, T/C (second compound 0.316 µM, first compound 0.00949 µM) was 91.6%. It also gave a viability, T/C (second compound 0.316 µM, first compound 0.03 µM) of 88.5%, a viability, T/C (second compound 0.316 µM, first compound 0.0949 µM) of 76.9% and a viability, T/C (second compound 0.316 µM, first compound 0.3 µM) of 30.3%. For the same compound, the viability, T/C (second compound 0.316 µM, first compound 0.949 µM) was 8.26%, the viability, T/C (second compound 0.316 µM, first compound 3 µM) was 10.9% and the viability, T/C (second compound 1 µM, first compound 0.00949 µM) was 87%. It also gave a viability, T/C (second compound 1 µM, first compound 0.03 µM) of 82.5%, a viability, T/C (second compound 1 µM, first compound 0.0949 µM) of 68.8% and a viability, T/C (second compound 1 µM, first compound 0.3 µM) of 30.2%. It also gave a viability, T/C (second compound 1 µM, first compound 0.949 µM) of 10.4%, a viability, T/C (second compound 1 µM, first compound 3 µM) of 13.2% and a viability, T/C (second compound 3.16 µM, first compound 0.00949 µM) of 84%. It also gave a viability, T/C (second compound 3.16 µM, first compound 0.03 µM) of 79.8%, a viability, T/C (second compound 3.16 µM, first compound 0.0949 µM) of 70.7% and a viability, T/C (second compound 3.16 µM, first compound 0.3 µM) of 30.8%. It also gave a viability, T/C (second compound 3.16 µM, first compound 0.949 µM) of 9.79%, a viability, T/C (second compound 3.16 µM, first compound 3 µM) of 13% and a viability, T/C (second compound 10 µM, first compound 0.00949 µM) of 68%. For the same compound, the viability, T/C (second compound 10 µM, first compound 0.03 µM) was 64.2%, the viability, T/C (second compound 10 µM, first compound 0.0949 µM) was 47% and the viability, T/C (second compound 10 µM, first compound 0.3 µM) was 29.6%. It also gave a viability, T/C (second compound 10 µM, first compound 0.949 µM) of 11.9% and a viability, T/C (second compound 10 µM, first compound 3 µM) of 12.1%.
With CC(C)c1c(-c2ccccc2)nc2c(C#N)c[nH]n2c1=O + CC(CO)NC(=O)c1cc(-c2ccc(Cl)cc2)nn(-c2cnn(C)c2)c1=O the IC50 [1] was over 10000 nM, the IC50 [2] was over 10000 nM and the IC50 [3] was over 10000 nM. The IC50 [4] was over 10000 nM, the IC50 [5] was over 10000 nM and the viability, T/C [6] was 109%. For the same compound, the viability, T/C [7] was 116%, the viability, T/C [8] was 121% and the viability, T/C [9] was 113%. The viability, T/C [10] was 119%, the viability, T/C [11] was 111% and the viability, T/C [12] was 113%. The viability, T/C [13] was 129%, the viability, T/C [14] was 123% and the viability, T/C [15] was 111%. For the same compound, the viability, T/C [16] was 113%, the viability, T/C [17] was 115% and the viability, T/C [18] was 109%. It also gave a viability, T/C [19] of 124%, a viability, T/C [20] of 119% and a viability, T/C [21] of 113%. It also gave a viability, T/C [22] of 113%, a viability, T/C [23] of 116% and a viability, T/C [24] of 115%. For the same compound, the viability, T/C [25] was 124%, the viability, T/C [26] was 131% and the viability, T/C [27] was 113%. It also gave a viability, T/C [28] of 120%, a viability, T/C [29] of 120% and a viability, T/C [30] of 110%. The viability, T/C [31] was 113%, the viability, T/C [32] was 107% and the viability, T/C [33] was 110%. The viability, T/C [34] was 113% and the viability, T/C [35] was 110%.
With Nc1ncn(C2CC(O)C(CO)O2)c(=O)n1 (centres undefined) + CC(CO)NC(=O)c1cc(-c2ccc(Cl)cc2)nn(-c2cnn(C)c2)c1=O the IC50 [1] was over 1000 nM, the IC50 [2] was over 1000 nM and the IC50 [3] was over 1000 nM. For the same compound, the IC50 [4] was over 1000 nM, the IC50 [5] was over 1000 nM and the viability, T/C (second compound 0.1 µM, first compound 0.00316 µM) was 109%. It also gave a viability, T/C (second compound 0.1 µM, first compound 0.01 µM) of 107%, a viability, T/C [6] of 118% and a viability, T/C [7] of 107%. The viability, T/C [8] was 103%, the viability, T/C [9] was 95.5% and the viability, T/C (second compound 0.316 µM, first compound 0.00316 µM) was 106%. The viability, T/C (second compound 0.316 µM, first compound 0.01 µM) was 114%, the viability, T/C [12] was 110% and the viability, T/C [13] was 114%. For the same compound, the viability, T/C [14] was 120%, the viability, T/C [15] was 109% and the viability, T/C (second compound 1 µM, first compound 0.00316 µM) was 117%. The viability, T/C (second compound 1 µM, first compound 0.01 µM) was 108%, the viability, T/C [18] was 103% and the viability, T/C [19] was 102%. It also gave a viability, T/C [20] of 107%, a viability, T/C [21] of 96% and a viability, T/C (second compound 3.16 µM, first compound 0.00316 µM) of 109%. For the same compound, the viability, T/C (second compound 3.16 µM, first compound 0.01 µM) was 109%, the viability, T/C [24] was 117% and the viability, T/C [25] was 114%. The viability, T/C [26] was 101%, the viability, T/C [27] was 97% and the viability, T/C (second compound 10 µM, first compound 0.00316 µM) was 96.9%. The viability, T/C (second compound 10 µM, first compound 0.01 µM) was 100%, the viability, T/C [30] was 105% and the viability, T/C [31] was 99.6%. It also gave a viability, T/C [32] of 92.9% and a viability, T/C [33] of 100%.
